Measured values published in patent US20150030583A1, “Methods of Treating Serosal Cancer” (SLOAN KETTERING INSTITUTE FOR CANCER RESEARCH, priority 2011, published 2015).
Where a name gives a salt, the structure may show the parent alone. Read-outs that look alike come from different tables or passages of the source.

Test system: Ovcar3-GTL catenae
Test: Ovcar3-GTL catena drug sensitivity / proliferation screen (alamarBlue, 384-well)
[1] = increased resistance of catena cells with glycocalyx coat versus no coat
[2] = read-out: IC50 (μM) No coat, pathway-specific inhibitors; catena cells without glycocalyx coat
[3] = read-out: IC50 (μM) With coat, pathway-specific inhibitors; catena cells with glycocalyx coat
[4] = ratio of IC50 day 6 to day 1, Ovcar3-GTL catenae
[5] = read-out: IC50 (μM) Addition on Day 1; Ovcar3-GTL catenae; compound added one day after seeding (cells predominantly lacking a glycocalyx)
[6] = read-out: IC50 (μM) Addition on Day 6; Ovcar3-GTL catenae; compound added six days after seeding (established or substantial glycocalyx)
[7] = LOPAC 1280 HTS; compound at 0.2 μM
[8] = 24 h, read-out: IC50 (μM) Addition on Day 1, Ovcar3-GTL catenae; compound added one day after seeding (cells predominantly lacking a glycocalyx)
[9] = 144 h, read-out: IC50 (μM) Addition on Day 6, Ovcar3-GTL catenae; compound added six days after seeding (established or substantial glycocalyx)
[10] = read-out: IC50 (μM) With coat; pathway-specific inhibitors; catena cells with glycocalyx coat

SMILES	Fold resistance [1]	IC50 [2]	IC50 [3]	further results
Cc1[nH]c(/C=C2\C(=O)Nc3ccc(S(=O)(=O)N(C)c4cccc(Cl)c4)cc32)c(C)c1C(=O)N1CCN(C)CC1 [SU11274 (PKI-SU11274)]	>8 fold	3.14 µM	> 25 µM	
c1ccc2c(c1)[I+]c1ccccc1-2 [diphenyleneiodonium chloride]				toxicity to catena cells with a glycocalyx coat: exert toxicity
COc1cc2c(Oc3ccc(NC(=O)C4(C(=O)Nc5ccc(F)cc5)CC4)cc3F)ccnc2cc1OCCCN1CCOCC1 [XL880 (GSK1363089EXEL-2880)]		0.05 µM	13.4 µM	
CCNC(=O)c1noc(-c2cc(C(C)C)c(O)cc2O)c1-c1ccc(CN2CCOCC2)cc1 [NVP-AUY922]	24 fold			
COCCNCc1ccc(-c2cc3nccc(Oc4ccc(NC(=S)NC(=O)Cc5ccc(F)cc5)cc4F)c3s2)nc1 [MGCD-265]	>8 fold	3.14 µM	> 25 µM	
COc1cc2c(N3CCN(C(=O)Nc4ccc(OC(C)C)cc4)CC3)ncnc2cc1OCCCN1CCCCC1 [Tandutinib (MLN518), Tandutinib]		13.4 µM	13.4 µM	
CCN(CC)CCNC(=O)c1c(C)[nH]c(/C=C2\C(=O)Nc3ccc(F)cc32)c1C [Sunitinib Malate (Sutent), Sunitinib Malate]	4 fold	3.14 µM	13.4 µM	
C=CCNC1=C2C[C@@H](C)C[C@H](OC)[C@H](O)[C@@H](C)/C=C(\C)[C@H](OC(N)=O)[C@@H](OC)/C=C\C=C(/C)C(=O)NC(=CC1=O)C2=O [17AAG]				Increase in Resistance Day6/Day 1 [4]: 33 fold; IC50 [5]: 0.012 µM; IC50 [6]: 0.4 µM
CCCCCCCCCCCCCCCCCCOP(=O)([O-])OC1CC[N+](C)(C)CC1 [Perifosine]	4 fold	3.14 µM	13.4 µM	
Clc1ccc(Nc2nnc(Cc3ccncc3)c3ccccc23)cc1 [Vatalanib]		> 25 µM	> 25 µM	
CN1CCN(c2ccc3nc(-c4c(N)c5c(F)cccc5[nH]c4=O)[nH]c3c2)CC1 [CHIR-258 (Dovitinib), Dovitinib]	4 fold	3.14 µM	13.4 µM	
COc1ccc(CCN(C)CCCC(C#N)(c2ccc(OC)c(OC)c2)C(C)C)cc1OC (centres unmarked) [verapamil]				IC50 (24 h, read-out: IC50 (μM) Addition on Day 1): > 100 µM; IC50 (144 h, read-out: IC50 (μM) Addition on Day 6): > 100 µM
COC(=O)c1ccc2c(c1)NC(=O)/C2=C(\Nc1ccc(N(C)C(=O)CN2CCN(C)CC2)cc1)c1ccccc1 [BIBF1120 (Vargatef)]		13.4 µM	13.4 µM	
COc1cccc2c1C(=O)c1c(O)c3c(c(O)c1C2=O)C[C@@](O)(C(C)=O)C[C@@H]3O[C@H]1C[C@H](N)[C@H](O)[C@H](C)O1 [daunarubacin]				Increase in Resistance Day6/Day 1 [4]: 133 fold; IC50 [5]: 0.006 µM; IC50 [6]: 0.8 µM
Cc1ccc(Nc2nccc(N(C)c3ccc4c(C)n(C)nc4c3)n2)cc1S(N)(=O)=O [Pazopanib Hydrochloride]		> 25 µM	> 25 µM	
COc1cc2c(c(OC)c1OC)-c1ccc(OC)c(=O)cc1[C@@H](NC(C)=O)CC2 [colchicine]				toxicity to catena cells with a glycocalyx coat [7]: exert toxicity
COc1cc([C@@H]2c3cc4c(cc3[C@@H](O[C@@H]3O[C@@H]5CO[C@@H](C)O[C@H]5[C@H](O)[C@H]3O)[C@H]3COC(=O)[C@H]23)OCO4)cc(OC)c1O [etoposide]				IC50 [8]: 0.4 µM; IC50 [9]: 50 µM; Increase in Resistance Day6/Day 1 [4]: 125 fold
Nc1cccc2c1CN(C1CCC(=O)NC1=O)C2=O (centres unmarked) [Lenalidomide]		> 25 µM	> 25 µM	
Cc1ccc(C(=O)Nc2ccc(CN3CCN(C)CC3)c(C(F)(F)F)c2)cc1C#Cc1cnc2cccnn12 [AP24534 (Ponatinib), Ponatinib]	16 fold			IC50 (read-out: IC50 (μM) No coat): 0.78 µM; IC50 (read-out: IC50 (μM) With coat): 13.4 µM
C/C(=C\c1csc(C)n1)[C@@H]1C[C@@H]2O[C@]2(C)CCC[C@H](C)[C@H](O)[C@@H](C)C(=O)C(C)(C)[C@@H](O)CC(=O)O1 [Epo-B]				Increase in Resistance Day6/Day 1 [4]: 4,000 fold; IC50 [5]: 0.025 µM; IC50 [6]: > 100 µM
CN(C)C/C=C/C(=O)Nc1cc2c(Nc3ccc(F)c(Cl)c3)ncnc2cc1O[C@H]1CCOC1 [BIBW2992 (Tovok)]	4 fold	3.14 µM	13.4 µM	
CNC(=O)c1cc(Oc2ccc(NC(=O)Nc3ccc(Cl)c(C(F)(F)F)c3)c(F)c2)ccn1 [BAY 73-4506 (Regorafenib), Regorafenib]		13.4 µM	13.4 µM	
CC[C@@H]1C(=O)N(C)c2cnc(Nc3ccc(C(=O)NC4CCN(C)CC4)cc3OC)nc2N1C1CCCC1 [BI 2536]				IC50 (read-out: IC50 (μM) No coat): < 0.001 µM; IC50 (read-out: IC50 (μM) With coat): 13.4 µM
CCc1cc(Nc2nccc(-c3c(-c4ccc(OC)c(C(=O)Nc5c(F)cccc5F)c4)nc4ccccn34)n2)c(OC)cc1N1CCC(N2CCN(S(C)(=O)=O)CC2)CC1 [GSK1904529A]		> 25 µM		IC50 [10]: > 25 µM

SMILES	Fold resistance [1]	IC50 [2]	IC50 [3]	further results
C[C@@H](Oc1cc(-c2cnn(C3CCNCC3)c2)cnc1N)c1c(Cl)ccc(F)c1Cl [PF-02341066, Crizotinib]	16 fold	0.78 µM	13.4 µM	IC50 [8]: 0.8 µM; IC50 [9]: 25 µM; Increase in Resistance Day6/Day 1 [4]: 31 fold
CC(=O)c1c(C)c2cnc(Nc3ccc(N4CCNCC4)cn3)nc2n(C2CCCC2)c1=O [PD-0332991]		13.4 µM	13.4 µM	IC50 [8]: 0.6 µM; IC50 [9]: 50 µM; Increase in Resistance Day6/Day 1 [4]: 83 fold
O=C(NOCC1CC1)c1ccc(F)c(F)c1Nc1ccc(I)cc1Cl [CI-1040 (PD184352)]		> 25 µM	> 25 µM	
Cc1[nH]c(/C=C2\C(=O)Nc3ccc(S(=O)(=O)Cc4c(Cl)cccc4Cl)cc32)c(C)c1C(=O)N1CCC[C@@H]1CN1CCCC1 [PHA-665752]	1 fold	3.14 µM	3.14 µM	
Cc1cc(Nc2cc(N3CCN(C)CC3)nc(Sc3ccc(NC(=O)C4CC4)cc3)n2)[nH]n1 [VX-680 (Tozasertib), Tozasertib]		0.05 µM	> 25 µM	
C[C@@H](N)[C@H]1CC[C@H](C(=O)Nc2ccncc2)CC1 [Y27632]		> 25 µM	> 25 µM	IC50 [8]: > 100 µM; IC50 [9]: > 100 µM
Oc1cccc(-c2nc(N3CCOCC3)c3oc4ncccc4c3n2)c1 [PI-103]	16 fold			IC50 (read-out: IC50 (μM) No coat): 0.78 µM; IC50 (read-out: IC50 (μM) With coat): 13.4 µM
NCC(=O)Nc1ccc(-n2nc(C(F)(F)F)cc2-c2ccc3c(ccc4ccccc43)c2)cc1 [OSU-03012]	4 fold	3.14 µM	13.4 µM	
Cn1cc(-c2ccc3nnc(Sc4ccc5ncccc5c4)n3n2)cn1 [SGX-523]	>8 fold	3.14 µM	> 25 µM	
CO[C@H]1C[C@@H]2CC[C@@H](C)[C@@](O)(O2)C(=O)C(=O)N2CCCC[C@H]2C(=O)O[C@H]([C@H](C)C[C@@H]2CC[C@@H](O)[C@H](OC)C2)CC(=O)[C@H](C)/C=C(\C)[C@@H](O)[C@@H](OC)C(=O)[C@H](C)C[C@H](C)/C=C/C=C/C=C/1C [rapamycin]				IC50 [8]: 12 µM; IC50 [9]: 25 µM; Increase in Resistance Day6/Day 1 [4]: 2 fold
O=C(NOC[C@H](O)CO)c1ccc(F)c(F)c1Nc1ccc(I)cc1F [PD0325901]				IC50 (read-out: IC50 (μM) No coat): 0.2 µM; IC50 (read-out: IC50 (μM) With coat): > 25 µM
O=c1cc(-c2cccc3c2Sc2ccccc2S3)oc(N2CCOCC2)c1 [KU-55933]		13.4 µM	13.4 µM	
OCCn1cc(-c2ccc3c(c2)CC/C3=N\O)c(-c2ccncc2)n1 [GDC-0879]		> 25 µM	> 25 µM	
NC1(c2ccc(-c3nc4ccn5c(=O)[nH]nc5c4cc3-c3ccccc3)cc2)CCC1 [MK-2206]	4 fold	3.14 µM	13.4 µM	
C/C1=C/C[C@@H](/C(C)=C/c2csc(C)n2)OC(=O)C[C@H](O)C(C)(C)C(=O)[C@H](C)[C@@H](O)[C@@H](C)CCC1 [dEpoB]				Increase in Resistance Day6/Day 1 [4]: 250,000 fold; IC50 [5]: 0.0004 µM; IC50 [6]: > 100 µM
N#CC(=C(/N)Sc1ccccc1N)/C(C#N)=C(\N)Sc1ccccc1N [U0126]				IC50 (read-out: IC50 (μM) No coat): 13.4 µM; IC50 (read-out: IC50 (μM) With coat): > 25 µM
C[C@H]1CCC/C=C/[C@@H]2C[C@H](O)C[C@H]2[C@H](O)/C=C/C(=O)O1 [brefeldin A]				toxicity to catena cells with a glycocalyx coat [7]: exert toxicity
COc1cccc2c1C(=O)c1c(O)c3c(c(O)c1C2=O)C[C@@](O)(C(=O)CO)C[C@@H]3O[C@H]1C[C@H](N)[C@H](O)[C@H](C)O1 [doxorubicin]				IC50 [8]: 0.025 µM; IC50 [9]: 0.8 µM; Increase in Resistance Day6/Day 1 [4]: 32 fold
CS(=O)(=O)N1CCN(Cc2cc3nc(-c4cccc5[nH]ncc45)nc(N4CCOCC4)c3s2)CC1 [GDC-0941]	>8 fold	3.14 µM	> 25 µM	
Cc1nc(Nc2ncc(C(=O)Nc3c(C)cccc3Cl)s2)cc(N2CCN(CCO)CC2)n1 [dasatinib]				IC50 [8]: > 100 µM; IC50 [9]: > 100 µM
C[C@]1(c2nc3c(C(N)=O)cccc3[nH]2)CCCN1 [ABT-888 (Veliparib), Veliparib]		13.4 µM	> 25 µM	
Cn1cc(-c2ccc3nnc(C(F)(F)c4ccc5ncccc5c4)n3n2)cn1 [JNJ-38877605]	>8 fold	3.14 µM		IC50 [10]: > 25 µM
CNC(=O)c1cc(Oc2ccc(NC(=O)Nc3ccc(Cl)c(C(F)(F)F)c3)cc2)ccn1 [Sorafenib Tosylate (Bay 43-9006), Sorafenib Tosylate]		13.4 µM	13.4 µM	
CC(C)C[C@H](NC(=O)[C@H](Cc1ccccc1)NC(=O)c1cnccn1)B(O)O [bortezomib]				IC50 [8]: 0.013 µM; IC50 [9]: 0.013 µM
